The values that follow come from patent US20150273013A1, “AGONISTS OF GUANYLATE CYCLASE USEFUL FOR THE TREATMENT OF GASTROINTESTINAL DISORDERS, INFLAMMATION, CANCER AND OTHER DISORDERS” (Synergy Pharmaceuticals, Inc., priority 2014, published 2015).

The subject of test [1] is non-inflammatory partial restraint stress induced hypersensitivity to colorectal distension (CRD). As to the kind of experiment: Partial restraint stress induced hypersensitivity to colorectal distension, oral treatment. The test is classed as in vivo, rat. Conditions: partial restraint stress model, oral doses of 0.01 and 0.05 mg/kg; for number of abdominal contractions in response to CRD: intracolonic distension pressures between 15 and 60 mm Hg. On the procedure:
(§1) Oral Treatment with Plecanatide and Sp-333, Agonists of Guanylate Cyclase-C, Attenuates Visceral Hypersensitivity in Rat Models
(§2) Oral treatment with plecanatide (Asn Asp Glu Cys Glu Leu Cys Val Asn Val Ala Cys Thr Gly Cys Leu) or SP-333 (dAsn Asp Glu Cys Glu Leu Cys Val Asn Val Ala Cys Thr Gly Cys dLeu), homologues of UG, was evaluated in rodent models of inflammatory (TNBS) and non-inflammatory partial restraint stress induced hypersensitivity to colorectal distension (CRD).

For test [2], the system named is inflammatory (TNBS) induced hypersensitivity to colorectal distension (CRD). The test can be described thus: TNBS (inflammatory) induced hypersensitivity to colorectal distension, oral treatment. The test is classed as in vivo, rat. The note with it: for colonic wall elasticity / number of abdominal contractions in response to CRD: TNBS model, oral doses of 0.01 and 0.05 mg/kg; for number of abdominal contractions in response to CRD: intracolonic distension pressures between 15 and 60 mm Hg; for colonic volume adaptation to increasing pressure: after TNBS instillation, pressures between 15 and 60 mm Hg. On the procedure: as §1, §2

The test system of the next test is colitis in murine models. The note with it: oral treatment, Shailubhai et al. 2009; cited from earlier work.

Bridges are numbered along the chain shown (N, C = ends). Where no end group is shown, it is not given here. [ ]: non-standard residue; d: D form.

Take “Asn Asp Glu Cys Glu Leu Cys Val Asn Val Ala Cys Thr Gly Cys Leu (NDECELCVNVACTGCL; disulfide 4-12, 7-15) [plecanatide, GC-C agonist, homologue of uroguanylin, (C4:C12, C7:C15) bicycle peptide]”: in test [1], the colonic wall elasticity entry is given as “without significantly altering” and the “number of abdominal contractions in response to CRD” value (“number of abdominal contractions” below) is listed as “effectively reduced”. Moreover, in test [2], the colonic wall elasticity entry was “without significantly altering”, the “number of abdominal contractions” value was “effectively reduced” and the “colonic volume adaptation to increasing pressure” value was “reduced”. In the test on colitis in murine models, the effect on colitis entry was “ameliorate colitis”.

With “dAsn Asp Glu Cys Glu Leu Cys Val Asn Val Ala Cys Thr Gly Cys dLeu ([dN]DECELCVNVACTGC[dL]; disulfide 4-12, 7-15) [SP-333, GC-C agonist, homologue of uroguanylin, (C4:C12, C7:C15) bicycle peptide]”, in test [1], the colonic wall elasticity result is given as “without significantly altering” and the “number of abdominal contractions” value is given as “effectively reduced”. In test [2], the colonic wall elasticity entry is reported as “without significantly altering”, the “number of abdominal contractions” value is “effectively reduced” and the “colonic volume adaptation to increasing pressure” value is “reduced”. In addition, the effect on colitis result with colitis in murine models is given as “ameliorate colitis”.
